pIC50: −log10 of the molar value. Calls of active or inactive are those of the source. The calls are words filed in the database; no cut-off is given here.
How the values were obtained:
CMK = experiment: Antiproliferative activity against human CMK cells harboring wild type NSD2 assessed as inhibition of cell growth incubated for 6 days by CCK-8 assay; assay type: functional, cell-based; settings: 144 h
[1] = AUClast in ICR mouse at 1 mg/kg, iv measured for 24 hrs by LC-MS/MS analysis; assay type: ADME, organism-based; set-up: dose 1 mg/kg, time 24 hrs, route iv; settings: in vivo
KMS-11 = experiment: Induction of apoptosis in human KMS-11 cells assessed as dead cells at 0.8 uM incubated for 72 hrs by Annexin V-FITC/PI staining based flow cytometry analysis (reference value: 6.48%); assay type: functional
[2] = Half life in ICR mouse at 3 mg/kg, po measured for 24 hrs by LC-MS/MS analysis; assay type: ADME, organism-based; settings: in vivo
[3] = target: Histone-arginine methyltransferase CARM1 (Homo sapiens, UniProt Q86X55); experiment: Inhibition of PRMT4 (unknown origin) by AlphaLISA assay
MOLM-13 = experiment: Antiproliferative activity against human MOLM-13 cells harboring wild type NSD2 assessed as inhibition of cell growth incubated for 6 days by CCK-8 assay; assay type: functional, cell-based; settings: MOLM-13, 144 h
[4] = target: Hepatocyte growth factor receptor (Homo sapiens) (UniProt P08581); experiment: Inhibition of MET transcriptional activation in human KMS-11 cells assessed as reduction in H3K36me2 level in promoter region by ChIP-qPCR analysis; assay type: cell-based
[5] = target: Histone-lysine N-methyltransferase NSD2 (Homo sapiens) (UniProt O96028); experiment: Binding affinity to human recombinant NSD2 (941 to 1240 residues) at 200 uM by CPMG based NMR analysis
Histone-lysine N-methyltransferase NSD2 (Homo sapiens), sequence (O96028 whole entry, the tested form may be a part): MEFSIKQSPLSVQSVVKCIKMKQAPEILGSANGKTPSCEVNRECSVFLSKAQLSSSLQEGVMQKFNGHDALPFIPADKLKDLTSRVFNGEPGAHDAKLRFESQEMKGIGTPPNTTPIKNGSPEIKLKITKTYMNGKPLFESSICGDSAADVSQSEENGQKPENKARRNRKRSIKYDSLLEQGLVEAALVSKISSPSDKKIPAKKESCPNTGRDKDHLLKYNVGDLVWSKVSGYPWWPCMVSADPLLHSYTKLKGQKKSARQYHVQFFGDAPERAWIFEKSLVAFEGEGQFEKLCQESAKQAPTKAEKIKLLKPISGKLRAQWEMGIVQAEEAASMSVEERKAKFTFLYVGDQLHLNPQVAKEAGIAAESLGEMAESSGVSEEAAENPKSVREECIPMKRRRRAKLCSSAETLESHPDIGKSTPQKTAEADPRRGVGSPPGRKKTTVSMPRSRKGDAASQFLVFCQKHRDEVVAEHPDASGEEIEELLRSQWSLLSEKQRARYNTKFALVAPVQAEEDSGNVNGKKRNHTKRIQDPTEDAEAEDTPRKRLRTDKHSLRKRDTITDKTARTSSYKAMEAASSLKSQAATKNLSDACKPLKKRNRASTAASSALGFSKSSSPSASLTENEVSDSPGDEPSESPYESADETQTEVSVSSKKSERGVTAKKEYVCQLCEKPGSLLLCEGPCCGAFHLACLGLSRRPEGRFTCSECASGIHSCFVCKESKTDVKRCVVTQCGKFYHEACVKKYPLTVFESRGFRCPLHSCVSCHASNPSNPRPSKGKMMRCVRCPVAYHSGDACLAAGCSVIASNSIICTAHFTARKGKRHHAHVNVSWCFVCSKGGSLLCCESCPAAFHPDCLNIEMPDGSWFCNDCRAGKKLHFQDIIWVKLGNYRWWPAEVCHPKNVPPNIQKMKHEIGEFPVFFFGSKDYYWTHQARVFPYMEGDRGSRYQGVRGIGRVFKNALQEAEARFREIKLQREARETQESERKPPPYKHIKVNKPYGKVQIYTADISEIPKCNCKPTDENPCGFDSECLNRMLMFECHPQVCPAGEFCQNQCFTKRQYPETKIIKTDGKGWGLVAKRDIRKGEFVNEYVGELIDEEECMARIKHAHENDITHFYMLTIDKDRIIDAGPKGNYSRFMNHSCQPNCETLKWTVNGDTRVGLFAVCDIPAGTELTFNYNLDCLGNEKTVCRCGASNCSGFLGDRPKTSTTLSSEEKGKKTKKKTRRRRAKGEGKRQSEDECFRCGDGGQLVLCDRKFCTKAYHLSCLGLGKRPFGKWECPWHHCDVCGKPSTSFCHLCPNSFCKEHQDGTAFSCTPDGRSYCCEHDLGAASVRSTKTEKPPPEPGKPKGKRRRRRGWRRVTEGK

Histone-arginine methyltransferase CARM1, sequence (Q86X55 whole entry): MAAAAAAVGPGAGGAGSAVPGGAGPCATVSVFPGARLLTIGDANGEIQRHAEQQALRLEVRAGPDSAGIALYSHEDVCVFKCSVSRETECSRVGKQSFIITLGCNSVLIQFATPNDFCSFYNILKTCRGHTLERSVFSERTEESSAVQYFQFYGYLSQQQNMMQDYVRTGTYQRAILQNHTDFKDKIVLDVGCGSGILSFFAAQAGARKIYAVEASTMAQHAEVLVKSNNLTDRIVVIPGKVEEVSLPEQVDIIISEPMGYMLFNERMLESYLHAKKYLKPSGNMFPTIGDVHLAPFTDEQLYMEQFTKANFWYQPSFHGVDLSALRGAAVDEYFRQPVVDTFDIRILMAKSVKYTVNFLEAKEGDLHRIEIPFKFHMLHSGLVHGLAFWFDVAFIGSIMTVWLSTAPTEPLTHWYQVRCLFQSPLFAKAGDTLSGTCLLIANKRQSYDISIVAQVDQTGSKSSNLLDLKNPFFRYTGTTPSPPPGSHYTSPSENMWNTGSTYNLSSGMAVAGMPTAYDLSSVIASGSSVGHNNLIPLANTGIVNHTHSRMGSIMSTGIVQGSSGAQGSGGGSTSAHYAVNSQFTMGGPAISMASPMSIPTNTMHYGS
Hepatocyte growth factor receptor (Homo sapiens), sequence (P08581 whole entry, the tested form may be a part): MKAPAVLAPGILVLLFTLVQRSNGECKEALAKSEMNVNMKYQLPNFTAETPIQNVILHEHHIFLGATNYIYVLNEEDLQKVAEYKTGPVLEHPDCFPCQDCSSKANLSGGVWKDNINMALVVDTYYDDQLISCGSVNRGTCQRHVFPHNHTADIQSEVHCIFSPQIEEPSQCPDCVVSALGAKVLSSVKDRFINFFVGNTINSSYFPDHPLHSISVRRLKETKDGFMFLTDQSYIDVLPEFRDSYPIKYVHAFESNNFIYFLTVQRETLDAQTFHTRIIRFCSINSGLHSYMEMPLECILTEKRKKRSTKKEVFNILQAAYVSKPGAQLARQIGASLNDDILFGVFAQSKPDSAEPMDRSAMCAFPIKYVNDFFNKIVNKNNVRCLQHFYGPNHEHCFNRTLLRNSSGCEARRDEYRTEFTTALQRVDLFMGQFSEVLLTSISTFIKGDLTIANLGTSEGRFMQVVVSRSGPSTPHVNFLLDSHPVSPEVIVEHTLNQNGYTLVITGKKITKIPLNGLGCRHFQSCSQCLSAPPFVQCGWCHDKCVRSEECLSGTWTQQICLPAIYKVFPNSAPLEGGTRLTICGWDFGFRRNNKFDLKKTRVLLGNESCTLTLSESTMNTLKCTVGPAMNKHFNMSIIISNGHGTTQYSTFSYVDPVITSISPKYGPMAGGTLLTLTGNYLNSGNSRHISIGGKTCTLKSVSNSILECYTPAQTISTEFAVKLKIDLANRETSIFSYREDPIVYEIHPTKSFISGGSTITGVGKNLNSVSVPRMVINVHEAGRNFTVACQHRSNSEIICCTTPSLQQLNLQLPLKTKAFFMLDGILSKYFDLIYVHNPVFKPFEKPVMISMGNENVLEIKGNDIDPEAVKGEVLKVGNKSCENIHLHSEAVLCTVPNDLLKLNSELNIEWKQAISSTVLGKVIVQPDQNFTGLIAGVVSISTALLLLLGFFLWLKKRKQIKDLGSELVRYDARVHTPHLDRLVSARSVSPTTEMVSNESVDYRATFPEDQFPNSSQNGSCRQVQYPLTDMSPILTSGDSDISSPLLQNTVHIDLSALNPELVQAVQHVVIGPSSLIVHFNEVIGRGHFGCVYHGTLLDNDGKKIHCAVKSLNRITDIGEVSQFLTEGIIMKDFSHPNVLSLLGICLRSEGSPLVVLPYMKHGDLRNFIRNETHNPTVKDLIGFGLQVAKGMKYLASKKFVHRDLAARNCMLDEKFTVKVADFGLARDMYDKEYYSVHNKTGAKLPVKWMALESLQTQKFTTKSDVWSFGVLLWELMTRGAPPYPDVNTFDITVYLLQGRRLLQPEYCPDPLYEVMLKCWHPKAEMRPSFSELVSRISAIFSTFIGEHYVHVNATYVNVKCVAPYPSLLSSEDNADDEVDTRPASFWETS

## CC#CC(=O)NC12CC(NC3=C(Cl)C(=O)c4ncccc4C3=O)(C1)C2
CMK
  pIC50: 5.59
[1]
  AUC(0-t) at 24 h: 5180 ng·h/mL
KMS-11
  Activity: 5.98%
[2]
  half-life: 403 min
[3]
  pIC50: < 5.00
MOLM-13
  pIC50: 5.50
[4]
  inhibition: Active
[5]
  Activity: Active
